Test results from patent US20080275063A1, “Inhibitors of protein kinases” (priority 2007, published 2008).

What was measured:
[1] = system: Tau protein at Serin396 in differentiated SH-SY5Y cells; experiment: In vitro SH-SY5Y assay, tau phosphorylation; assay type: cell-based, human; details: RA- and BDNF-differentiated SH-SY5Y cells, 90-120 min incubation, Western Blot or ELISA
Description: Abnormal tau phosphorylation and deregulated CDK5/p35 activity are closely linked to each other and represent hallmarks of neurodegenerative diseases such as Alzheimer's disease, Parkinson's disease or Amyotrophic lateral sclerosis. The human neuroblastoma cell line SH-SY5Y can be utilized as an in vitro model to investigate CDK5 function and the efficacy of CDK5 specific inhibitors. SH-SY5Y cells express tau protein which harbors various phosphorylation sites known to be phosphorylated by several kinases including CDK5. SH-SY5Y cells can be differentiated into neuron-like cells by exposure to 10 μM all trans-retinoic acid for 3 days and subsequent exposure to 50 ng/ml human recombinant brain-derived neurotrophic factor for 3-5 days, thereby upregulating neuronal markers, including tau protein. In addition CDK5 and p35 protein levels were increased during differentiation. […]
Concentrations of total tau, pS396 tau and pT231 tau within the cell culture lysates are measured by using commercial ELISA Kits (BioSource: human total tau: KHB0042; human pS396 tau: KHB7031; human pT231 tau: KHB7051) according to the manufacturers instructions or by using Western Blots probing with total and phospho-specific antibodies (antibodies: total tau: Santa Cruz, sc-21796; pS396 tau: Santa Cruz, sc-12414; pT231 tau, AT180: Pierce Endogen, MN1040; pS202 tau: AT8: Pierce Endogen, MN1020). […]

CCOc1ccccc1-c1cc(Nc2ccc(CS(N)(=O)=O)cc2)ncn1 [Compound 6, {4-[6-(2-Ethoxy-phenyl)-pyrimidin-4-ylamino]-phenyl}-methanesulfonamide]
melting point: 213.5 to 215.1 °C

NS(=O)(=O)Cc1ccc(Nc2cc(-c3ccccc3OCc3ccccc3)ncn2)cc1 [Compound 8, {4-[6-(2-Benzyloxy-phenyl)-pyrimidin-4-ylamino]-phenyl}-methanesulfonamide]
effect on Tau phosphorylation at Serin396 [1]: significant inhibitory effect

COCCCNS(=O)(=O)Cc1cccc(Nc2cc(-c3ccccc3OC)ncn2)c1 [Reference compound 3, C-{3-[6-(2-methoxy-phenyl)-pyrimidin-4-ylamino]-phenyl}-N-(3-methoxy-propyl)-methanesulfonamide]
melting point: 149.2 to 150.8 °C
